Assay results: patent US20080021026A1, “BENZOTHIOPHENE INHIBITORS OF RHO KINASE” (priority 2006, published 2008)
Read-outs that look alike come from different tables or passages of the source.

Assays:
[1] = biological target: T1, recombinant N-terminal GST-tagged human Rho kinase 1 (ROCK1, amino acids 1-535) (Homo sapiens, UniProt Q13464); assay: In vitro Rho kinase assay (luciferase-based ATP consumption), ROCK1; type: biochemical
T1 construct: ROCK1, amino acids 1-535; purchased Invitrogen Inc. PV-3691
T1 sequence (Q13464 1-535): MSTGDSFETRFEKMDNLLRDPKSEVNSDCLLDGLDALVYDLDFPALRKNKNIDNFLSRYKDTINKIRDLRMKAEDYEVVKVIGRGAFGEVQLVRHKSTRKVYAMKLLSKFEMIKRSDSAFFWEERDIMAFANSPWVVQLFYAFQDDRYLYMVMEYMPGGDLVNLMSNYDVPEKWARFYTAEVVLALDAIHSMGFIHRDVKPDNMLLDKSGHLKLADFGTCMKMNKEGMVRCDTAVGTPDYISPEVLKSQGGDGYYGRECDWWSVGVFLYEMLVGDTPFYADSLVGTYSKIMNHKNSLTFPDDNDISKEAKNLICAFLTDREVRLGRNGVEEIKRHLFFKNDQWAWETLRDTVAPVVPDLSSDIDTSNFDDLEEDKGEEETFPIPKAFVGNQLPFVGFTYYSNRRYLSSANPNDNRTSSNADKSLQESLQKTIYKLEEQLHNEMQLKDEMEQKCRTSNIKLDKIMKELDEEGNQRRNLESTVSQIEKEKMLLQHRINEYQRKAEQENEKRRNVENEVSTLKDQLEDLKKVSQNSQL
Summary of the method: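 GST-ROCK1 (aa 1-535) at 0.82 μg/ml with 100 μg/ml S6 peptide and 3 µM ATP in Tris pH 7.5 buffer with MgCl2, CaCl2, EGTA, BSA; compound added after reaction start, 2 h at 30 °C. Remaining ATP read by luciferase luminescence; efficacy as percent of H-1152P positive control.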

[2] = biological target: T2, recombinant N-terminal GST-tagged human Rho kinase 2 (ROCK2, amino acids 1-552) (Homo sapiens, UniProt O75116); assay: In vitro Rho kinase assay (luciferase-based ATP consumption), ROCK2; type: biochemical
T2 construct: ROCK2, amino acids 1-552; purchased Invitrogen Inc. PV3759
T2 sequence (O75116 1-552): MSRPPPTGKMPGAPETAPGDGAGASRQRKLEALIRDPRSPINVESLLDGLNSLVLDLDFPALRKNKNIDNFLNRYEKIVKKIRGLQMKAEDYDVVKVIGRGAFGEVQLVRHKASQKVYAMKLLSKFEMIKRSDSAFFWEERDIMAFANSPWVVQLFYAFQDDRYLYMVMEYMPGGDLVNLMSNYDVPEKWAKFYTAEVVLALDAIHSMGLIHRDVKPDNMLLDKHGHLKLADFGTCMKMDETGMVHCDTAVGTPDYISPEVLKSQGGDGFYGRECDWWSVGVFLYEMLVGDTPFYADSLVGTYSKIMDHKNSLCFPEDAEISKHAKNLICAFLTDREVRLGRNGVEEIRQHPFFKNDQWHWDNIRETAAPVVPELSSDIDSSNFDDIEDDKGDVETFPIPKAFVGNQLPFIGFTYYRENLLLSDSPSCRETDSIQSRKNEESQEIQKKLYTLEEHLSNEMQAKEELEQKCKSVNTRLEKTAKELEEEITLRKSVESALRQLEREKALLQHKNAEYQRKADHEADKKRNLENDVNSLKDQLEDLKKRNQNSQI
Summary of the method: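 GST-ROCK2 (aa 1-552, 0.82 μg/ml) with 100 μg/ml S6 peptide and 3 µM ATP in Tris pH 7.5 buffer with MgCl2/CaCl2/EGTA/BSA, compound added just after reaction start, 2 h at 30 °C. Remaining ATP read by luciferase luminescence. Efficacy expressed as percentage of H-1152P positive control.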

[3] = recombinant GST-tagged human ROCK1, luciferase-based ATP consumption, read-out: ROCK1 IC50
[4] = recombinant GST-tagged human ROCK2, luciferase-based ATP consumption, read-out: ROCK2 IC50

Row | IC50 [1, 3] [µM] | IC50 [2, 4] [µM] | Structure (SMILES) | IC50 ([1]; ROCK1 IC50, recombinant GST-tagged human ROCK1, luciferase-based ATP consumption) [µM] | IC50 ([2]; ROCK2 IC50, recombinant GST-tagged human ROCK2, luciferase-based ATP consumption) [µM]
1 | < 5 | < 5 | Cc1c(-c2ccnc(N)n2)sc2ccc(CNC(=O)CCc3nc4ccccc4[nH]3)cc12 [Example 244, Cc1c(sc2ccc(CNC(═O)CCc3nc4ccccc4[nH]3)cc12)-c5ccnc(N)n5] |  | 
2 | > 5 | < 5 | Cc1c(-c2ccnc(N)n2)sc2ccc(CNC(=O)c3cc(O)ccc3O)cc12 [Example 142, Cc1c(sc2ccc(CNC(═O)c3cc(O)ccc3O)cc12)-c4ccnc(N)n4] |  | 
3 | > 5 | > 5 | Cc1c(-c2ccnc(N)n2)sc2ccc(CNC(=O)C3CC(O)CN3C(=O)OC(C)(C)C)cc12 (centres unmarked) [Example 311, Cc1c(sc2ccc(CNC(═O)[C]3CC(O)CN3C(═O)OC(C)(C)C)cc12)-c4ccnc(N)n4] |  | 
4 | > 5 | < 5 | Cc1c(-c2ccnc(N)n2)sc2ccc(CNC(=O)c3ccc([N+](=O)[O-])c(O)c3)cc12 [Example 226, Cc1c(sc2ccc(CNC(═O)c3ccc(c(O)c3)[N+]([O−])═O)cc12)-c4ccnc(N)n4] |  | 
5 | > 5 | > 5 | Cc1c(-c2ccnc(N)n2)sc2ccc(CNC(=O)C3CCCCN3C(=O)OC(C)(C)C)cc12 (centres unmarked) [Example 305, Cc1c(sc2ccc(CNC(═O)[C]3CCCCN3C(═O)OC(C)(C)C)cc12)-c4ccnc(N)n4] |  | 
6 | < 5 | < 5 | Cc1c(-c2ccnc(N)n2)sc2ccc(Nc3cccc(Oc4ccccc4)c3)cc12 [Example 53, 4-(3-Methyl-5-(3-phenoxyphenylamino)benzo[b]thiophen-2-yl)pyrimidin-2-amine] |  | 
7 | > 5 | < 5 | Cc1c(-c2ccnc(N)n2)sc2ccc(CNC(=O)c3cccc(F)c3F)cc12 [Example 154, Cc1c(sc2ccc(CNC(═O)c3cccc(F)c3F)cc12)-c4ccnc(N)n4] |  | 
8 | > 5 | < 5 | Cc1c(-c2ccnc(N)n2)sc2ccc(CNC(=O)c3csc4ccccc34)cc12 [Example 201, Cc1c(sc2ccc(CNC(═O)c3csc4ccccc34)cc12)-c5ccnc(N)n5] |  | 
9 | < 5 | < 5 | Cc1c(-c2ccnc(N)n2)sc2ccc(Nc3cccc(N)c3)cc12 [Example 57, N^1-(2-(2-Aminopyrimidin-4-yl)-3-methylbenzo[b]thiophen-5-yl)benzene-1,3-diamine] |  | 
10 | < 5 | > 5 | Cc1c(-c2ccnc(N)n2)sc2ccc(CNC(=O)C(NC(=O)OC(C)(C)C)C(C)C)cc12 (centres unmarked) [Example 292, CC(C)[C](NC(═O)OC(C)(C)C)C(═O)NCc1ccc2sc(c(C)c2c1)-c3ccnc(N)n3] |  | 
11 | < 5 | < 5 | COc1cncc(Nc2ccc3sc(-c4ccnc(N)n4)c(C)c3c2)c1 [Example 67, 4-(5-(5-Methoxypyridin-3-ylamino)-3-methylbenzo[b]thiophen-2-yl)pyrimidin-2-amine] |  | 
12 | > 5 | < 5 | COC(=O)c1cccc(Cc2ccc3sc(-c4ccnc(N)n4)c(C)c3c2)c1 [Example 42, Methyl 3-((2-(2-aminopyrimidin-4-yl)-3-methylbenzo[b]thiophen-5-yl)methyl)benzoate] |  | 
13 | < 5 | < 5 | Cc1c(-c2ccnc(N)n2)sc2ccc(CNC(=O)c3cccs3)cc12 [Example 34, N-((2-(2-Aminopyrimidin-4-yl)-3-methylbenzo[b]thiophen-5-yl)methyl)thiophene-2-carboxamide] |  | 
14 | < 5 | < 5 | COc1ccc(NC(=O)c2cccc(Cc3ccc4sc(-c5ccnc(N)n5)c(C)c4c3)c2)cc1 [Example 46, 3-((2-(2-Aminopyrimidin-4-yl)-3-methylbenzo[b]thiophen-5-yl)methyl)-N-(4-methoxyphenyl)benzamide] |  | 
15 | < 5 | < 5 | COC(=O)c1cccc(Sc2ccc3sc(-c4ccnc(N)n4)c(C)c3c2)c1 [Example 85, Methyl 3-(2-(2-aminopyrimidin-4-yl)-3-methylbenzo[b]thiophen-5-ylthio)benzoate] |  | 
16 | < 5 | < 5 | Cc1c(-c2ccc3[nH]ncc3c2)sc2ccc(Cl)cc12 [Example 10, 5-(5-Chloro-3-methylbenzo[b]thiophen-2-yl)-1H-indazole] |  | 
17 | < 5 | < 5 | Cc1c(-c2ccnc(N)n2)sc2ccc(Nc3cccc(OCc4ccccc4)c3)cc12 [Example 55, 4-(5-(3-(Benzyloxy)phenylamino)-3-methylbenzo[b]thiophen-2-yl)pyrimidin-2-amine] |  | 

Row | IC50 [1, 3] [µM] | IC50 [2, 4] [µM] | Structure (SMILES) | IC50 ([1]; ROCK1 IC50, recombinant GST-tagged human ROCK1, luciferase-based ATP consumption) [µM] | IC50 ([2]; ROCK2 IC50, recombinant GST-tagged human ROCK2, luciferase-based ATP consumption) [µM]
18 | < 5 | < 5 | Cc1c(-c2ccnc(N)n2)sc2ccc(CNC(=O)C(C)c3ccc(O)cc3)cc12 (centres unmarked) [Example 178, CC(C(═O)NCc1ccc2sc(c(C)c2c1)-c3ccnc(N)n3)c4ccc(O)cc4] |  | 
19 | < 5 | > 5 | Cc1c(-c2ccnc(N)n2)sc2ccc(-c3ccccc3)cc12 [Example 88, 4-(3-Methyl-5-phenylbenzo[b]thiophen-2-yl)pyrimidin-2-amine] |  | 
20 | > 5 | < 5 | Cc1c(-c2ccnc(N)n2)sc2ccc(CNC(=O)c3ccc(Cl)c([N+](=O)[O-])c3)cc12 [Example 268, Cc1c(sc2ccc(CNC(═O)c3ccc(Cl)c(c3)[N+]([O−])═O)cc12)-c4ccnc(N)n4] |  | 
21 | < 5 | < 5 | Cc1c(-c2ccnc(N)n2)sc2ccc(CN)cc12 [Example 33, 4-(5-(Aminomethyl)-3-methylbenzo[b]thiophen-2-yl)pyrimidin-2-amine] |  | 
22 | > 5 | > 5 | Cc1c(-c2nccnc2N)sc2ccc(Cl)cc12 [Example 12, 3-(5-Chloro-3-methylbenzo[b]thiophen-2-yl)pyrazin-2-amine] |  | 
23 | > 5 | > 5 | Cc1c(-c2ccncc2)sc2ccc(Cl)cc12 [Example 4, 4-(5-Chloro-3-methylbenzo[b]thiophen-2-yl)pyridine] |  | 
24 | < 5 | < 5 | Cc1c(-c2ccnc(N)n2)sc2ccc(CNC(=O)c3cccc([N+](=O)[O-])c3)cc12 [Example 180, Cc1c(sc2ccc(CNC(═O)c3cccc(c3)[N+]([O−])═O)cc12)-c4ccnc(N)n4] |  | 
25 | > 5 | < 5 | CCOC(=O)CC(=O)NCc1ccc2sc(-c3ccnc(N)n3)c(C)c2c1 [Example 117, CCOC(═O)CC(═O)NCc1ccc2sc(c(C)c2c1)-c3ccnc(N)n3] |  | 
26 | > 5 | < 5 | Cc1ccc([N+](=O)[O-])c(C(=O)NCc2ccc3sc(-c4ccnc(N)n4)c(C)c3c2)c1 [Example 217, Cc1ccc(c(c1)C(═O)NCc2ccc3sc(c(C)c3c2)-c4ccnc(N)n4)[N+]([O−])═O] |  | 
27 |  |  | Cc1c(-c2ccnc(N)n2)sc2ccc(CNC(=O)C=Cc3ccccc3Cl)cc12 [Example 225, Cc1c(sc2ccc(CNC(═O)C═Cc3ccccc3Cl)cc12)-c4ccnc(N)n4] | > 5 | < 5
28 | < 5 | < 5 | Cc1c(-c2ccnc(N)n2)sc2ccc(CNC(=O)c3cc4ccccc4cc3O)cc12 [Example 238, Cc1c(sc2ccc(CNC(═O)c3cc4ccccc4cc3O)cc12)-c5ccnc(N)n5] |  | 
29 | > 5 | < 5 | COc1ccc(O)c(C(=O)NCc2ccc3sc(-c4ccnc(N)n4)c(C)c3c2)c1 [Example 182, COc1ccc(O)c(c1)C(═O)NCc2ccc3sc(c(C)c3c2)-c4ccnc(N)n4] |  | 
30 | > 5 | < 5 | Cc1c(-c2ccnc(N)n2)sc2ccc(CNC(=O)c3ccc(O)cc3O)cc12 [Example 144, Cc1c(sc2ccc(CNC(═O)c3ccc(O)cc3O)cc12)-c4ccnc(N)n4] |  | 
31 | < 5 | < 5 | Cc1c(-c2ccnc(N)n2)sc2ccc(Nc3ccccn3)cc12 [Example 64, 4-(3-Methyl-5-(pyridin-2-ylamino)benzo[b]thiophen-2-yl)pyrimidin-2-amine] |  | 
32 | < 5 | > 5 | CCC(C)C(NC(=O)OC(C)(C)C)C(=O)NCc1ccc2sc(-c3ccnc(N)n3)c(C)c2c1 (centres unmarked) [Example 322, CCC(C)[C](NC(═O)OC(C)(C)C)C(═O)NCc1ccc2sc(c(C)c2c1)-c3ccnc(N)n3] |  | 
33 | < 5 | < 5 | Cc1c(-c2ccnc(N)n2)sc2ccc(Cc3cccc(OCCCN)c3)cc12 [Example 31, 4-(5-(3-(3-Aminopropoxy)benzyl)-3-methylbenzo[b]thiophen-2-yl)pyrimidin-2-amine] |  | 
34 | < 5 | < 5 | COc1ccc([N+](=O)[O-])c(C(=O)NCc2ccc3sc(-c4ccnc(N)n4)c(C)c3c2)c1 [Example 259, COc1ccc(c(c1)C(═O)NCc2ccc3sc(c(C)c3c2)-c4ccnc(N)n4)[N+]([O−])═O] |  | 

Row | Structure (SMILES) | IC50 [1, 3] [µM] | IC50 [2, 4] [µM] | IC50 ([1]; ROCK1 IC50, recombinant GST-tagged human ROCK1, luciferase-based ATP consumption) [µM] | IC50 ([2]; ROCK2 IC50, recombinant GST-tagged human ROCK2, luciferase-based ATP consumption) [µM]
35 | CCc1ccc(C(=O)NCc2ccc3sc(-c4ccnc(N)n4)c(C)c3c2)cc1 [Example 137, CCc1ccc(cc1)C(═O)NCc2ccc3sc(c(C)c3c2)-c4ccnc(N)n4] | > 5 | > 5 |  | 
36 | Cc1c(-c2ccnc(N)n2)sc2ccc(CNC(=O)c3ccc(OC(C)C)cc3)cc12 [Example 214, CC(C)Oc1ccc(cc1)C(═O)NCc2ccc3sc(c(C)c3c2)-c4ccnc(N)n4] | > 5 | > 5 |  | 
37 | COC(=O)c1ccc(C(=O)NCc2ccc3sc(-c4ccnc(N)n4)c(C)c3c2)cc1 [Example 209, COC(═O)c1ccc(cc1)C(═O)NCc2ccc3sc(c(C)c3c2)-c4ccnc(N)n4] | < 5 | < 5 |  | 
